In patent US10160747B2, “Compounds and methods for kinase modulation, and indications therefor” (Plexxikon Inc., priority 2016, dated 2018) one finds IC50 data, which are given here for 1 compound.

One assay has as its target T1, FLT3-D835Y (Homo sapiens, UniProt P36888, D835Y).
T1 construct: purchased Invitrogen PV3967
T1 sequence (P36888 27-993 D835Y): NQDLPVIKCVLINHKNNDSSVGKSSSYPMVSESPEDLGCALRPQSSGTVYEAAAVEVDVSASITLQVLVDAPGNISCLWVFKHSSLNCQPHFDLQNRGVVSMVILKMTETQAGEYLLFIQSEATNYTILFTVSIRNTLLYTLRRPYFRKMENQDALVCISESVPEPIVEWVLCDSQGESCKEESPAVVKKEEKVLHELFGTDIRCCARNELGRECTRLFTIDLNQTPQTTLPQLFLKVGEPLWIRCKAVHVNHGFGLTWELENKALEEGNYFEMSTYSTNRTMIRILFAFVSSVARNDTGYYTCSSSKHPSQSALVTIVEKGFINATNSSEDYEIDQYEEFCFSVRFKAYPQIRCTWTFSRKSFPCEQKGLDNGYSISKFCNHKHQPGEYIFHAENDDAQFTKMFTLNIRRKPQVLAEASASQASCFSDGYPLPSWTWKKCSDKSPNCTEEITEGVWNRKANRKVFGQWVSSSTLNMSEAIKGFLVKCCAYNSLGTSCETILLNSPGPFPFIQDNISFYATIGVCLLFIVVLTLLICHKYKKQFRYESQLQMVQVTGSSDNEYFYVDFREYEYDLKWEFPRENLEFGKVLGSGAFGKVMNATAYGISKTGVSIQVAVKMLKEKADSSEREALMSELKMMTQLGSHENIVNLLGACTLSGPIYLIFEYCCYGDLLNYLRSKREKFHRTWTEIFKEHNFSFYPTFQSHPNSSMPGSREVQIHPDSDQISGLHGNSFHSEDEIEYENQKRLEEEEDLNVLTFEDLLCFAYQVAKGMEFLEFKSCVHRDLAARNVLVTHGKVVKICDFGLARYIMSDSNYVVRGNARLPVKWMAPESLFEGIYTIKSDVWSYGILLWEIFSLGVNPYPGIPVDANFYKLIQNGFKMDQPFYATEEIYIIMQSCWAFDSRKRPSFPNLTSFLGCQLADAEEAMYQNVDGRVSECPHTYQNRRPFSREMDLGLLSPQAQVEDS
In words: FLT3-D835Y recombinant enzyme kinase assay (AlphaScreen). The format is biochemical. The settings on record: 8 pt, GMean. A digest of the protocol:
(§1)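 Kinase activity of recombinant FLT3-ITD, FLT3-D835Y and c-KIT was followed via phosphotyrosine formation on a 30 nM biotin-peptide substrate, captured on streptavidin donor and anti-phosphotyrosine acceptor AlphaScreen beads. ATP was set at 10 μM for FLT3 and 100 μM for c-KIT.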
For orientation: Alpha assays give light when donor and acceptor beads are brought close together.

The next assay has as its target T2, c-KIT (Homo sapiens, UniProt P10721).
T2 construct: purchased Millipore 14-559K
The assay can be described thus: c-KIT recombinant enzyme kinase assay (AlphaScreen). The settings on record: 100 ATP, 8 pt. The format is biochemical. A digest of the protocol: as §1

T2 sequence (P10721 26-976): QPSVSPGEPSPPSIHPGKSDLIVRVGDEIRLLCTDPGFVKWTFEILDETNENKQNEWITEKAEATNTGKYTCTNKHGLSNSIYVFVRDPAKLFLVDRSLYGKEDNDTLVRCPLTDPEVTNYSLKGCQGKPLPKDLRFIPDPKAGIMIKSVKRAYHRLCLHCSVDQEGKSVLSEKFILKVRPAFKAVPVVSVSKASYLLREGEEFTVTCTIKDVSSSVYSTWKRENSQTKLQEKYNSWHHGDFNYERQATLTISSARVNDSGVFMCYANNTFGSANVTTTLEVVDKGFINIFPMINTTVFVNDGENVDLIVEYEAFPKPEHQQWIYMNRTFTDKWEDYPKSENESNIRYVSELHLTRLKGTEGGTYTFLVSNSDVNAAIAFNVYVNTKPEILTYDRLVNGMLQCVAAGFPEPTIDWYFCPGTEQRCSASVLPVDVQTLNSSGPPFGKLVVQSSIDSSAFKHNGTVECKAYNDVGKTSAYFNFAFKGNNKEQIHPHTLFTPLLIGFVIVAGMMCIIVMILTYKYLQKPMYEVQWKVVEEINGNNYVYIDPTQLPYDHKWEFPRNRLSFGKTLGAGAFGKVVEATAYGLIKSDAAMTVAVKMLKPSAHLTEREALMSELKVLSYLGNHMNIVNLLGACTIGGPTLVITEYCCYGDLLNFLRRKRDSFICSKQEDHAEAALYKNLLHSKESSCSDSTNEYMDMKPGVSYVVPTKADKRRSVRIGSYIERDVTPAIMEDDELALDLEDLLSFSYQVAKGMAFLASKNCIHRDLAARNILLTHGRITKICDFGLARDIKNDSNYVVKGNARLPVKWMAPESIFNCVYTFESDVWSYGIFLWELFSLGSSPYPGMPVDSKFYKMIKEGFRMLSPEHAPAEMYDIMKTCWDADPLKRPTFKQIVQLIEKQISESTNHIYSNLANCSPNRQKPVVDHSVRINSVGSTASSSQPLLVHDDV

`Cc1ncc(NC(=O)Cc2ccc(-c3cnc(Nc4cn(C)cn4)nc3)cc2)cc1C(F)(F)F` [Compound P-0150, 2-[4-[2-[(1-methylimidazol-4-yl)amino]pyrimidin-5-yl]phenyl]-N-[6-methyl-5-(trifluoromethyl)-3-pyridyl]acetamide]: the IC50 on FLT3-D835Y and on c-KIT was 0.0001 to 10 µM each time.
